Data reported in PubChem BioAssay (NCI).
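Values below derive from 48-hour exposures of cells grown in 96-well plates, with endpoints linearly interpolated between the two concentrations bracketing the appropriate inhibition level. The concentration for 50% growth inhibition is given as GI50. TGI denotes the concentration required for complete inhibition of growth.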

Key:
Experiment in all cases: NCI-60 cell line screen, 48 h; in the data active = GI50 below about 0.43 µM; inactive = the rest
786-0 renal = tested on: 786-0 renal
A498 renal = tested on: A498 renal
A549 NSCLC = tested on: A549 NSCLC
ACHN renal = tested on: ACHN renal
CAKI-1 renal = tested on: CAKI-1 renal
CCRF-CEM leukemia = tested on: CCRF-CEM leukemia
COLO 205 colon = tested on: COLO 205 colon
DLD-1 colon = tested on: DLD-1 colon
DMS 273 small cell lung = tested on: DMS 273 small cell lung
EKVX NSCLC = tested on: EKVX NSCLC
HCC-2998 colon = tested on: HCC-2998 colon
HCT-116 colon = tested on: HCT-116 colon
HCT-15 colon = tested on: HCT-15 colon
HL-60(TB) leukemia = tested on: HL-60(TB) leukemia
HOP-18 NSCLC = tested on: HOP-18 NSCLC
HOP-62 NSCLC = tested on: HOP-62 NSCLC
HT29 colon = tested on: HT29 colon
IGROV1 ovarian = tested on: IGROV1 ovarian
K-562 leukemia = tested on: K-562 leukemia
KM12 colon = tested on: KM12 colon
LOX IMVI melanoma = tested on: LOX IMVI melanoma
LXFL 529 NSCLC = tested on: LXFL 529 NSCLC
M14 melanoma = tested on: M14 melanoma
MALME-3M melanoma = tested on: MALME-3M melanoma
MOLT-4 leukemia = tested on: MOLT-4 leukemia
NCI-H226 lung = tested on: NCI-H226 lung
NCI-H23 lung = tested on: NCI-H23 lung
NCI-H460 lung = tested on: NCI-H460 lung
NCI-H522 lung = tested on: NCI-H522 lung
OVCAR-3 ovarian = tested on: OVCAR-3 ovarian
OVCAR-4 ovarian = tested on: OVCAR-4 ovarian
OVCAR-5 ovarian = tested on: OVCAR-5 ovarian
OVCAR-8 ovarian = tested on: OVCAR-8 ovarian
RPMI-8226 leukemia = tested on: RPMI-8226 leukemia
RXF 393 renal = tested on: RXF 393 renal
SF-268 CNS = tested on: SF-268 CNS
SF-295 CNS = tested on: SF-295 CNS
SF-539 CNS = tested on: SF-539 CNS
SK-MEL-2 melanoma = tested on: SK-MEL-2 melanoma
SK-MEL-28 melanoma = tested on: SK-MEL-28 melanoma
SK-MEL-5 melanoma = tested on: SK-MEL-5 melanoma
SK-OV-3 ovarian = tested on: SK-OV-3 ovarian
SN12C renal = tested on: SN12C renal
SNB-19 CNS = tested on: SNB-19 CNS
SNB-75 CNS = tested on: SNB-75 CNS
SNB-78 CNS = tested on: SNB-78 CNS
SR leukemia = tested on: SR leukemia
SW-620 colon = tested on: SW-620 colon
TK-10 renal = tested on: TK-10 renal
U251 CNS = tested on: U251 CNS
UACC-257 melanoma = tested on: UACC-257 melanoma
UO-31 renal = tested on: UO-31 renal
DMS 114 small cell lung = tested on: DMS 114 small cell lung
HOP-92 NSCLC = tested on: HOP-92 NSCLC
M19-MEL melanoma = tested on: M19-MEL melanoma
UACC-62 melanoma = tested on: UACC-62 melanoma

N.N.NCCCCCCN.O=C([O-])CCl.O=C([O-])CCl.O=C([O-])CCl.O=C([O-])CCl.[Pt+4].[Pt+4]
inactive: GI50 (786-0 renal) > 50 µM | GI50 (A498 renal) > 50 µM | GI50 (A549 NSCLC) > 50 µM | GI50 (ACHN renal) 35.9 µM | GI50 (CAKI-1 renal) 24.7 µM | GI50 (CCRF-CEM leukemia) 2.73 µM | GI50 (COLO 205 colon) 9.54 µM | GI50 (DLD-1 colon) > 50 µM | GI50 (DMS 273 small cell lung) > 50 µM | GI50 (EKVX NSCLC) > 50 µM | GI50 (HCC-2998 colon) > 50 µM | GI50 (HCT-116 colon) > 50 µM | GI50 (HCT-15 colon) > 50 µM | GI50 (HL-60(TB) leukemia) 15.5 µM | GI50 (HOP-18 NSCLC) > 50 µM | GI50 (HOP-62 NSCLC) 6.04 µM | GI50 (HT29 colon) 37.1 µM | GI50 (IGROV1 ovarian) > 50 µM | GI50 (K-562 leukemia) > 50 µM | GI50 (KM12 colon) > 50 µM | GI50 (LOX IMVI melanoma) > 50 µM | GI50 (LXFL 529 NSCLC) > 50 µM | GI50 (M14 melanoma) > 50 µM | GI50 (MALME-3M melanoma) > 50 µM | GI50 (MOLT-4 leukemia) 1.73 µM | GI50 (NCI-H226 lung) 17 µM | GI50 (NCI-H23 lung) 27.1 µM | GI50 (NCI-H460 lung) 3.11 µM | GI50 (NCI-H522 lung) 10.9 µM | GI50 (OVCAR-3 ovarian) > 50 µM | GI50 (OVCAR-4 ovarian) > 50 µM | GI50 (OVCAR-5 ovarian) > 50 µM | GI50 (OVCAR-8 ovarian) > 50 µM | GI50 (RPMI-8226 leukemia) > 50 µM | GI50 (RXF 393 renal) 13.1 µM | GI50 (SF-268 CNS) 18.8 µM | GI50 (SF-295 CNS) > 50 µM | GI50 (SF-539 CNS) 45.2 µM | GI50 (SK-MEL-2 melanoma) > 50 µM | GI50 (SK-MEL-28 melanoma) > 50 µM | GI50 (SK-MEL-5 melanoma) > 50 µM | GI50 (SK-OV-3 ovarian) > 50 µM | GI50 (SN12C renal) 3.74 µM | GI50 (SNB-19 CNS) 27.8 µM | GI50 (SNB-75 CNS) 8.34 µM | GI50 (SNB-78 CNS) > 50 µM | GI50 (SR leukemia) 8.23 µM | GI50 (SW-620 colon) > 50 µM | GI50 (TK-10 renal) > 50 µM | GI50 (U251 CNS) 25.2 µM | GI50 (UACC-257 melanoma) > 50 µM | GI50 (UO-31 renal) > 50 µM
> 50 µM: TGI (786-0 renal) | TGI (A498 renal) | TGI (A549 NSCLC) | TGI (ACHN renal) | TGI (CAKI-1 renal) | TGI (CCRF-CEM leukemia) | TGI (COLO 205 colon) | TGI (DLD-1 colon) | TGI (DMS 273 small cell lung) | TGI (EKVX NSCLC) | TGI (HCC-2998 colon) | TGI (HCT-116 colon) | TGI (HCT-15 colon) | TGI (HL-60(TB) leukemia) | TGI (HOP-18 NSCLC) | TGI (HOP-62 NSCLC) | TGI (HT29 colon) | TGI (IGROV1 ovarian) | TGI (K-562 leukemia) | TGI (KM12 colon) | TGI (LOX IMVI melanoma) | TGI (LXFL 529 NSCLC) | TGI (M14 melanoma) | TGI (MALME-3M melanoma) | TGI (MOLT-4 leukemia) | TGI (NCI-H226 lung) | TGI (NCI-H23 lung) | TGI (NCI-H460 lung) | TGI (NCI-H522 lung) | TGI (OVCAR-3 ovarian) | TGI (OVCAR-4 ovarian) | TGI (OVCAR-5 ovarian) | TGI (OVCAR-8 ovarian) | TGI (RPMI-8226 leukemia) | TGI (RXF 393 renal) | TGI (SF-268 CNS) | TGI (SF-295 CNS) | TGI (SF-539 CNS) | TGI (SK-MEL-2 melanoma) | TGI (SK-MEL-28 melanoma) | TGI (SK-MEL-5 melanoma) | TGI (SK-OV-3 ovarian) | TGI (SN12C renal) | TGI (SNB-19 CNS) | TGI (SNB-75 CNS) | TGI (SNB-78 CNS) | TGI (SR leukemia) | TGI (SW-620 colon) | TGI (TK-10 renal) | TGI (U251 CNS) | TGI (UACC-257 melanoma) | TGI (UO-31 renal)

CC(C1=CC=C2[C@@H]3CCC4CC(N(C)C)CC[C@]4(C)C3CC[C@]12C)N(C)C=O (some centres undefined)
> 100 µM: TGI (786-0 renal) | TGI (A498 renal) | TGI (A549 NSCLC) | TGI (ACHN renal) | TGI (CAKI-1 renal) | TGI (CCRF-CEM leukemia) | TGI (COLO 205 colon) | TGI (DLD-1 colon) | TGI (DMS 114 small cell lung) | TGI (DMS 273 small cell lung) | TGI (HCC-2998 colon) | TGI (HCT-116 colon) | TGI (HCT-15 colon) | TGI (HL-60(TB) leukemia) | TGI (HOP-18 NSCLC) | TGI (HOP-62 NSCLC) | TGI (HOP-92 NSCLC) | TGI (HT29 colon) | TGI (IGROV1 ovarian) | TGI (K-562 leukemia) | TGI (KM12 colon) | TGI (LOX IMVI melanoma) | TGI (LXFL 529 NSCLC) | TGI (M14 melanoma) | TGI (M19-MEL melanoma) | TGI (MALME-3M melanoma) | TGI (MOLT-4 leukemia) | TGI (NCI-H23 lung) | TGI (NCI-H522 lung) | TGI (OVCAR-3 ovarian) | TGI (OVCAR-4 ovarian) | TGI (OVCAR-5 ovarian) | TGI (OVCAR-8 ovarian) | TGI (RPMI-8226 leukemia) | TGI (RXF 393 renal) | TGI (SF-268 CNS) | TGI (SF-295 CNS) | TGI (SF-539 CNS) | TGI (SK-MEL-2 melanoma) | TGI (SK-MEL-28 melanoma) | TGI (SK-MEL-5 melanoma) | TGI (SK-OV-3 ovarian) | TGI (SN12C renal) | TGI (SNB-19 CNS) | TGI (SNB-75 CNS) | TGI (SW-620 colon) | TGI (TK-10 renal) | TGI (U251 CNS) | TGI (UACC-62 melanoma) | TGI (UO-31 renal)
